According to publication PMC7198766, “Structure-Activity Studies on the Hypertrehalosemic Hormone II of the Stick Insect Carausius morosus (Phasmatodea): Carbohydrate-Mobilization and Cardio-Stimulatory Activities” (Frontiers in Physiology, 2020):
Values joined by “and” are separate entries in the source; they are usually repeats but may differ in a detail not shown here. Equal entries are not always repeated.

Tests used:
[1] = tested on: heart of neck-ligated Carausius morosus; assay: Semi-exposed heart bioassay (heart beat rate); assay type: in vivo; details: for % Activity relative to the effect of Carmo-HrTH-II (myotropic) / Heart rate, Difference: 20 pmol peptide in 150 μl; for % Activity relative to the effect of Carmo-HrTH-II (myotropic): heart rate increase relative to Carmo-HrTH-II = 100, NS = no significant increase; for Heart rate, Post-application: after application of 20 pmol peptide in 150 μl saline, average of first four counts; for Heart rate, Post-application / Heart rate, Pre-application: neck-ligated stick insects; for Heart rate, Pre-application: in saline before application, semi-exposed heart; for Heart rate, Difference: post- minus pre-application
Procedure: The semi-exposed heart bioassay was carried out as described ([Marco et al., 2018]) with adult stick insects between 1 and 2 months old that were ligated at the neck. Briefly, a ventral incision of the abdomen exposed the ventral cavity with the internal organs; a few drops of stick insect saline (pH 6.6; 15 mM NaCl, 18 mM KCl, 7.5 mM CaCl2, 2 mM HEPES, 50 mM MgCl2, and 184 mM glucose according to [Ejaz and Lange, 2008]) were added to the exposed part. The semi-isolated heart preparation was viewed with a dissecting microscope (12-fold magnification), and the number of observed heart beats (contractions of the heart muscle) was counted during a fixed period using a manual tally counter and a timer. Once the heart had stabilized, saline was replaced with the test solution. For this the peptide stock solution of 5 pmol μl^–1 was diluted with stick insect saline to the desired concentration and a final volume of 150 μl was used for each test.
Heart rates under normal saline served as controls. The change in heart rate after the application of the test solution was calculated as an average of the first four counts and was compared to the average heart rates counted in saline before the application of the test solution. This comparison of change in heart rates was done for all the peptides tested.

[2] = tested on: ligated 6th instar Indian stick insects (Carausius morosus); assay: Carbohydrate-mobilization (hypertrehalosemic) in vivo assay; details: for % Activity relative to the effect of Carmo-HrTH-II (metabolic): 20 pmol peptide injected, carbohydrate increase relative to Carmo-HrTH-II = 100, NS = no significant increase; for Hemolymph carbohydrates, 90 min: 90 min after injection of 20 pmol peptide in 10 μl; for Hemolymph carbohydrates, 90 min / Hemolymph carbohydrates, Difference: neck-ligated 6th instar nymphs; for Hemolymph carbohydrates, Difference: 90 min minus 0 min, 20 pmol peptide in 10 μl injected; for Hemolymph carbohydrates, 0 min: before injection (0 min), 2 h after neck ligation, group later given 20 pmol peptide in 10 μl, 6th instar nymphs
Procedure: Sixth instar nymphs that were 1–2 days before molting were neck-ligated and used in the hypertrehalosemic in vivo assay as described in detail by [Gäde and Lohr (1982)]. Stock peptide solutions (5 pmol μl^–1) were diluted with distilled water to the desired concentration in 10 μl, which was injected into the stick insect nymphs.
In the first series of experiments, various doses of synthetic Carmo-HrTH-II and corpora cardiaca (CC) extract of C. morosus were used to determine the maximal hypertrehalosemic response of C. morosus. Hemolymph samples were taken from 17 to 18 days old 6th instar nymphs 2 h after they were neck-ligated and then 90 min after either CC extract or synthetic Carmo-HrTH-II was injected. Ligated nymphs injected with distilled water served as controls for handling stress. As depicted in Figures 1A,B, various doses of both Carmo-HrTH-II and CC extract increased the level of carbohydrates in the hemolymph in a dose-dependent manner. A dose of 0.04 pmol of synthetic Carmo-HrTH-II and the equivalent of 0.005 pairs of corpora cardiaca (pCC) were sufficient to give significant increases in hemolymph carbohydrates (p < 0.05). […] Doses of 0.1–0.5 pCC gave an average increase of 5.6 ± 0.6 mg carbohydrates ml^–1 hemolymph (Figure 1B); again, statistical analyses reveal no significant difference between the effect of these doses (p > 0.05).
Based on these pilot experiments, we selected a dose of 20 pmol for testing the analogs of Carmo-HrTH-II since such a dose of our lead compound, Carmo-HrTH-II had achieved maximal hypertrehalosemic activity.

Substance	% Activity relative to the effect of Carmo-HrTH-II (myotropic) [1] [%]	Heart rate, Post-application [1] [beats min^−1]	Heart rate, Pre-application [1] [beats min^−1]	Heart rate, Difference [1] [beats min^−1]	% Activity relative to the effect of Carmo-HrTH-II (metabolic) [2]	Hemolymph carbohydrates, 90 min [2] [mg/mL]	Hemolymph carbohydrates, Difference [2] [mg/mL]	Hemolymph carbohydrates, 0 min [2] [mg/mL]
pGlu-Leu-Asn-Phe-Thr-Pro-Asn-Trp-Gly-Thr amide [Locmi-AKH-I, naturally-occurring AKH decapeptide bioanalog, reference compound]	25	43 ± 4	40 ± 4	3 ± 1	19%	9.9 ± 1.2	1.0 ± 1.2	8.9 ± 1.3
pGlu-Leu-Asn-Phe-Thr-Pro-Asn-Trp-Gly-Ser amide [Phymo-AKH, naturally-occurring AKH decapeptide bioanalog, reference compound]	8	38 ± 4	37 ± 3	1 ± 1	–	10.5 ± 1.4	0.9 ± 1.7	9.6 ± 1.8
pGlu-Leu-Thr-Phe-Thr-Pro-Asn-Trp-Gly-Thr OH [Carmo-HrTH-II: free C-terminus]	58	47 ± 3	40 ± 5	7 ± 3	30%	10.4 ± 2.2	1.6 ± 1.6	8.8 ± 2.1
pGlu-Leu-Ala-Phe-Thr-Pro-Asn-Trp-Gly-Thr amide [Ala^3-Carmo-HrTH-II]	16	40 ± 6	38 ± 6	2 ± 1	–	11.1 ± 1.8	0.8 ± 1.6	10.3 ± 2.4
pGlu-Leu-Thr-Phe-Ala-Pro-Asn-Trp-Gly-Thr amide [Ala^5-Carmo-HrTH-II]	–	40 ± 7	39 ± 7	1 ± 2	–	10.1 ± 1.3	-0.1 ± 0.1	10.2 ± 1.2
pGlu-Leu-Thr-Phe-Thr-Ala-Asn-Trp-Gly-Thr amide [Ala^6-Carmo-HrTH-II]	–	43 ± 5	43 ± 5	0 ± 0	–	11.1 ± 0.9	1.6 ± 1.1	9.5 ± 1.2
pGlu-Leu-Thr-Phe-Thr-Pro-Asn-Trp amide [Peram-CAH-II, naturally-occurring AKH octapeptide bioanalog, reference compound]	–	–	–	–	30% and 31%	11.0 ± 1.1	1.7 ± 2.0	9.3 ± 1.8
pGlu-Leu-Thr-Phe-Thr-Pro-Asn-Trp-Ala-Thr amide [Ala^9-Carmo-HrTH-II]	–	38 ± 2	39 ± 2	−1 ± 1	28%	11.0 ± 1.5	1.5 ± 0.9	9.5 ± 1.9
